Columns and labels:
GAT-1 [1] = assay: GAT-1 protein expression in brain regions of SLC6A1^+/S295L heterozygous mice; format: in vivo, mouse; details: S295L het; cerebellum; PBA 100 mg/kg, 7 days
Description: FIGS. 8C-D show integrated density values (IDVs) for total GAT-1 from wild-type and het KI were normalized to the Na^+/K^+ ATPase or anti-glyceraldehyde-3-phosphate dehydrogenase (GAPDH) loading control (LC) in each specific brain region and plotted. N=4 from 4 pairs of mice. […] The vehicle treated in each brain region was taken as 1. N=4 from 4 pairs of mice for FIG. 8C, FIG. 8D, FIG. 8G and FIG. 8H, Values were expressed as mean±S.E.M. One way ANOVA or unpaired t test.
The working solution was stored at 4° C.
Data were expressed as mean±SEM. Proteins were quantified by Odyssey software and data were normalized to loading controls and then to the wildtype subunit protein, which was arbitrarily taken as 1 in each experiment. Fluorescence intensities from confocal microscopy experiments were determined using MetaMorph imaging software, and the measurements were carried out in ImageJ. For statistical significance, one-way or two-way analysis of variance (ANOVA) with post hoc Dunnett or Newman-Keuls test were used. In some cases, unpaired t-test or one sample t-test was performed (GraphPad Prism, La Jolla, CA), and statistical significance was taken as p<0.05.

GAT-1 (SLC6A1^+/S295L) = assay: 3H GABA uptake, cortical astrocytes from SLC6A1^+/S295L knockin mice; format: cell-based, mouse; details: S295L heterozygous astrocytes; PBA 2 mM, 24 hr; SNAP5114 30 μM
Description: Mouse cortical astrocytes or neurons were cultured from postnatal pus at day 0-3 days old for astrocytes and day 0 for neurons from the SLC6A1^+/A288V or SLC6A1^+/S295L mouse line. FIGS. 7A-B show astrocytes under passage 2 were grown in […] dishes and passaged into 35-mm^2 dishes before GABA uptake assay.
(§1) FIGS. 7C-D show neurons directly cultured in the 35-mm^2 dishes and GABA uptake was evaluated between day 15-17 days after culture. CI-966 (50 μM) and NNC711 (35 μM) was applied 30 min before preincubation and removed during preincubation. GAT-3 inhibitor SNAP5114 (30 μM) was applied during GABA uptake to make sure only GAT-1 activity was measured. The wildtype astrocytes (FIGS. 7A-B) or cortical neurons (FIGS. 7C-D) of either SLC6A1^+/A288V or SLC6A1^+/S295L were taken as 1. The cultures derived from each mutant mouse was compared to the culture from its own wildtype littermates. […] The wildtype data were pooled from two mouse lines. […] The graph represents the relative GABA uptake level normalized to cells of its own genotype treated with DMSO. CI-966 (50 μM) or NNC-711 (35 μM) was applied 30 min before preincubation and removed during preincubation. Two-way analysis of variance followed by Bonferroni multiple comparison test was used. Values were expressed as mean±S.E.M. In FIG. 7A and FIG. 7C, ***p<0.001 vs. wt; § § § P<0.001 S295L vs. A288V. […]

GAT-1 [2] = assay: 3H GABA uptake, cultured cortical neurons from the knockin mice; format: cell-based, mouse; details: PBA 2 mM, 24 hr
Description: as §1
Briefly, cells were cultured in […] dishes for 3 days before the GABA uptake experiment in DMEM with 10% fetal bovine serum and 1% penicillin/streptomycin. […] Glacial acetic acid was added, and lysates were then determined on a liquid scintillator with QuantaSmart. […]

O=C(O)CCCc1ccccc1 [PBA, 4-phenylbutyric acid]
GAT-1 expression vs. same brain region of vehicle treated mice taken as 1 (GAT-1 [1]): 1.03±0.03
GABA uptake activity normalized to its own DMSO condition (GAT-1 (SLC6A1^+/S295L)): 1.54±0.13
GABA uptake in PBA treated cells (GAT-1 [2]): upregulation

From patent US20260144769A1, “4-PHENYLBUTYRATE RESTORED GABA UPTAKE AND REDUCED SEIZURES IN SLC6A1 VARIANT-MEDIATED DISORDERS” (Vanderbilt University, priority 2022, published 2026)
